From ChEMBL document CHEMBL1144234, “Novel design principle validated: glucopyranosylidene-spiro-oxathiazole as new nanomolar inhibitor of glycogen phosphorylase, potential antidiabetic agent” (Bioorg Med Chem Lett, 2008)

biological target: T1, Glycogen phosphorylase, muscle form (Oryctolagus cuniculus, UniProt P00489)
T1 sequence (P00489 whole entry): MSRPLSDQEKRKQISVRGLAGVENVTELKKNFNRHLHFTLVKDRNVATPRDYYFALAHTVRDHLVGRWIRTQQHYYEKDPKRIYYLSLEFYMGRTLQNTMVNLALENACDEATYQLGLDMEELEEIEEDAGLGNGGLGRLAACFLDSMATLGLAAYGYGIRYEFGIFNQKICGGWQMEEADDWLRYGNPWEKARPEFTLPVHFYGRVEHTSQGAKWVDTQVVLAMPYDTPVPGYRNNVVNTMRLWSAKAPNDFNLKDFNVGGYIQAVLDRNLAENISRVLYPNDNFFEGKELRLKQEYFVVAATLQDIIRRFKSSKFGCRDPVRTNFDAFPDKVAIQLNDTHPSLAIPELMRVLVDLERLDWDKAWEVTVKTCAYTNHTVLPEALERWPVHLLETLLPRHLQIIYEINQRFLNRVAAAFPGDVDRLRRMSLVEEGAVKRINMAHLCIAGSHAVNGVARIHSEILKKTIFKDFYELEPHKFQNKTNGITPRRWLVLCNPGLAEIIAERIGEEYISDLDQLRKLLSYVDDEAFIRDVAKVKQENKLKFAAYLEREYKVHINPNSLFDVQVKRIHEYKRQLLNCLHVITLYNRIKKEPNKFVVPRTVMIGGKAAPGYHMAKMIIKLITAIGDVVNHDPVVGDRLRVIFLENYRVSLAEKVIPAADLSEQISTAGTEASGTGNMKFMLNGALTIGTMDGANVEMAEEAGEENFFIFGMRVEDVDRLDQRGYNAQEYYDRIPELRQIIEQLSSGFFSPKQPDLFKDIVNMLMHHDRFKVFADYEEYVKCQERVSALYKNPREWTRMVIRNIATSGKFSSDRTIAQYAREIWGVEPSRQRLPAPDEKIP
Description: Inhibition of rabbit muscle glycogen phosphorylase b

First: O=C(NC(=O)c1cccc2ccccc12)N[C@@H]1O[C@H](CO)[C@@H](O)[C@H](O)[C@H]1O
Second: O=C(N[C@@H]1O[C@H](CO)[C@@H](O)[C@H](O)[C@H]1O)c1cccc2ccccc12
The Ki of the first is 89-fold lower: 5 µM for the first, 444 µM for the second.

Compared with `OC[C@H]1O[C@]2(ON=C(c3ccc(F)cc3)S2)[C@H](O)[C@@H](O)[C@@H]1O`, `COc1ccc(C2=NO[C@]3(O[C@H](CO)[C@@H](O)[C@H](O)[C@H]3O)S2)cc1` is 3.5-fold lower in Ki: 28 µM for the first, 8 µM for the second.

First: O=C(NC1O[C@H](CO)[C@@H](O)[C@H](O)[C@H]1O)c1ccccc1 (single isomer, unassigned)
Second: O=C(NC(=O)c1ccc2ccccc2c1)N[C@@H]1O[C@H](CO)[C@@H](O)[C@H](O)[C@H]1O
The Ki of the first is 230-fold higher: 81 µM for the first, 0.35 µM for the second.

`OC[C@H]1O[C@]2(ON=C(c3ccccc3)S2)[C@H](O)[C@@H](O)[C@@H]1O` and `CC(=O)NC1O[C@H](CO)[C@@H](O)[C@H](O)[C@H]1O` (single isomer, unassigned) are within 1.5-fold of each other in Ki: 26 µM for the first, 32 µM for the second.

For `CC(=O)NC(=O)N[C@@H]1O[C@H](CO)[C@@H](O)[C@H](O)[C@H]1O`, the Ki was 305 µM.
